Test results from US12128035B2, “Activating pyruvate kinase R” (Novo Nordisk Health Care AG, priority 2021, dated 2024).

Key:
[1] = Phase 1 SAD/MAD: plasma pharmacokinetics in healthy volunteers; format: in vivo, human; details: 14 days of dosing in healthy subjects
Excerpt: This is a first-in-human (FIH), Phase 1 study of Compound 1 that will characterize the safety, PK, and PD of Compound 1 after a single dose and after repeated dosing first in healthy adult volunteers and then in adolescents or adults with sickle cell disease. Initially, a dose range of Compound 1 in single ascending dose (SAD) escalation cohorts will be explored in healthy subjects. Enrollment of healthy subjects into 2-week multiple ascending dose (MAD) escalation cohorts will be initiated once the safety and PK from at least two SAD cohorts is available to inform the doses for the 2-week MAD portion of the study. The MAD cohorts will then run in parallel to the single dose cohorts. A single dose cohort is planned to understand food effects (FE) on the PK of Compound 1. […]
In this study, SAD/MAD cohorts are randomized (3 to 1) to receive Compound 1 or placebo (P). Compound 1 was evaluated first in 4 healthy SAD cohorts and 4 healthy MAD (14-day dosing period) cohorts. Based on the safety, and PK/PD profile from HS, Compound 1 is then evaluated in 1 SCD SAD cohort and 2 SCD MAD cohorts. Specifically, based on the safety and pharmacokinetic/pharmacodynamics (PK/PD) profile in healthy volunteer studies, Compound 1 is evaluated in patients (pts) with SCD, first in a single dose (SD or SAD) cohort and then in multiple-dose (MD or MAD) cohorts (14-day and 12-week). […]

[2] = Phase 1 food effect cohort in healthy subjects; format: in vivo, human; details: 400 mg with and without food
Procedure: Four healthy SAD cohorts were evaluated at doses of 200, 400, 700, and 1000 mg, and four healthy MAD cohorts received 200 to 600 mg total daily doses for 14 days at QD or BID dosing (100 mg BID, 200 mg BID, 300 mg BID, and 400 mg QD). In the food effect (FE) cohort, 10 healthy subjects received 400 mg of Compound 1 QD with and without food. […] FIG. 22 illustrates plasma Compound 1 pharmacokinetics in healthy volunteers following a single dose. […] No significant changes in exposure were observed after 14 days of dosing. Compound 1 exposure under fed/fasted conditions was similar.

**Q.** With `O=C([C@H](CO)c1ccccc1)N1CC2=C(C1)CN(S(=O)(=O)c1cnc3c(c1)OCCO3)C2` (single isomer, unassigned) [Compound 1] as the molecule, how does the “clearance on day 1 and day 14” value [1] read?
**A.** Its value is “unchanged”.

**Q.** What about the “exposure under fed/fasted conditions” value [2] of the same molecule?
**A.** The value was “similar”.
